Experimental data published in article PMC8233901, “D-Amino Acid-Containing Lipopeptides Derived from the Lead Peptide BP100 with Activity against Plant Pathogens” (International Journal of Molecular Sciences, 2021).
Where “and” joins values, the source holds several entries; their conditions need not be identical. Equal values may be shown once. Where a SMILES comes first, the peptide text is derived from it. [ ]: non-standard residue; d: D form. The star is where a group is joined. Lauroyl = CCCCCCCCCCCC(=O)*; Hexanoyl = CCCCCC(=O)*; Butyryl = CCCC(=O)*

What was measured:
tobacco leaves = experiment: Effect of peptide infiltration on tobacco leaves (lesion size); type: in vivo; conditions: for Size of the lesion (mm) 50 µM: 100 µL infiltrated into mesophyll of tobacco leaves; for Size of the lesion (mm) 50 µM / Size of the lesion (mm) 150 µM / Size of the lesion (mm) 250 µM: ± confidence interval
Description: The lipopeptides were evaluated for their effect upon infiltration on tobacco leaves as described previously. Peptide solutions of 50, 150 and 250 μM were infiltrated (100 μL) into the mesophylls of fully expanded tobacco leaves. Infiltrations were carried out in a single leaf, and for each peptide and dose, at least three leaves randomly distributed in different plants were infiltrated. Control infiltrations with water (negative control) or melittin (positive control) at the same molar concentration were performed. The appearance of symptoms on the leaves was followed for 48 h after infiltration and measured as a lesion diameter.

horse erythrocytes = experiment: Hemolytic activity (hemoglobin release from erythrocytes); type: cell-based; conditions: 37 °C, ± confidence interval (α = 0.05); for Hemolysis (%) 250 µM / Hemolysis (%) 150 µM / Hemolysis (%) 375 µM: relative to melittin; for Hemolysis (%) 50 µM: absorbance 540 nm, relative to melittin 100 µM
Description: The hemolytic activity of the compounds was evaluated by determining hemoglobin release from erythrocyte suspensions of horse blood (5% vol/vol) (Oxoid) as previously described. Blood was centrifuged at 6000 g for 5 min, washed three times with tris(hydroxymethyl)aminomethane (TRIS) buffer (10 mM TRIS, 150 mM NaCl, pH 7.2) and diluted 10 times. Compounds were solubilized in TRIS buffer at 750, 500, 300 and 100 μM and mixed with horse erythrocytes (1:1 v/v). The mixture was incubated under continuous shaking for 1 h at 37 °C. Then, the tubes were centrifuged at 3500 g for 10 min, 80 μL aliquots of the supernatant transferred to 100-well microplates (Bioscreen), diluted with 80 μL water, and the absorbance measured at 540 nm (Bioscreen). Complete hemolysis was obtained by the addition of melittin at 100 μM (Sigma-Aldrich Corporation, Madrid, Spain). The percentage of hemolysis (H) was calculated using the equation: H = 100 × [(Op−Ob)/(Om−Ob)], where Op is the density for a given compound concentration, Ob for the buffer, and Om for the melittin-positive control.

[1] = D-amino acid lipopeptides, lesion diameter, 48 h, at least three leaves
[2] = D-amino acid lipopeptides, 100 µL infiltrated into tobacco leaves, lesion diameter, 48 h, at least three leaves
[3] = D-amino acid lipopeptides, 250 µM, 100 µL infiltrated into tobacco leaves, lesion diameter, 48 h, at least three leaves
[4] = Table 2, 250 µM infiltrated into tobacco leaves
[5] = D-amino acid lipopeptides, 250 µM, TRIS buffer pH 7.2, 1 h
[6] = D-amino acid lipopeptides, TRIS buffer pH 7.2, 1 h

Compound	Size of the lesion (mm) 50 µM (tobacco leaves; [1])	Size of the lesion (mm) 150 µM (tobacco leaves; [2])	Size of the lesion (mm) 250 µM (tobacco leaves; [3])	Size of the lesion (mm) 250 µM (tobacco leaves; [4])	Hemolysis (%) 250 µM (horse erythrocytes; [5])	Hemolysis (%) 250 µM (horse erythrocytes; Table 2, 250 µM, 1 h)	Hemolysis (%) 50 µM (horse erythrocytes; [6])	Hemolysis (%) 150 µM (horse erythrocytes; [6])	Hemolysis (%) 375 µM (horse erythrocytes; [6])	necrosis in infiltrated tobacco leaves (tobacco leaves; positive control, 250 µM)
CCCC(=O)NCCCC[C@H](NC(=O)[C@H](CC(C)C)NC(=O)[C@@H](NC(=O)[C@H](CCCCN)NC(=O)[C@H](CCCCN)NC(=O)[C@@H](Cc1ccccc1)NC(=O)[C@H](CC(C)C)NC(=O)[C@H](CCCCN)NC(=O)[C@H](CCCCN)NC(C)=O)[C@@H](C)CC)C(=O)N[C@@H](Cc1ccc(O)cc1)C(=O)N[C@@H](CC(C)C)C(N)=O [BP499, Ac-KKLfKKILK(COC3H7)YL-NH2]	6 ± 1 mm	8 ± 2 mm	8 ± 2 mm	8 ± 2 mm	11 ± 1%	–	–	–	–	–
CCCCCC(=O)NCCCC[C@H](NC(=O)[C@H](Cc1ccc(O)cc1)NC(=O)[C@H](CCCCN)NC(=O)[C@H](CC(C)C)NC(=O)[C@@H](NC(=O)[C@H](CCCCN)NC(=O)[C@H](CCCCN)NC(=O)[C@@H](Cc1ccccc1)NC(=O)[C@H](CC(C)C)NC(=O)[C@H](CCCCN)NC(=O)[C@H](CCCCN)NC(C)=O)[C@@H](C)CC)C(N)=O [BP495, Ac-KKLfKKILKYK(COC5H11)-NH2] (Ac-KKL[dF]KKILKYK(Hexanoyl)-NH2)	3 ± 0 mm	6 ± 2 mm	11 ± 2 mm	11 ± 2 mm	–	0.6 ± 1%	–	–	–	–
CCCC(=O)NCCCC[C@H](NC(=O)[C@@H](NC(=O)[C@H](CCCCN)NC(=O)[C@H](CCCCN)NC(=O)[C@@H](Cc1ccccc1)NC(=O)[C@H](CC(C)C)NC(=O)[C@H](CCCCN)NC(=O)[C@H](CCCCN)NC(C)=O)[C@@H](C)CC)C(=O)N[C@@H](CCCCN)C(=O)N[C@@H](Cc1ccc(O)cc1)C(=O)N[C@@H](CC(C)C)C(N)=O [BP474, Ac-KKLfKKIK(COC3H7)KYL-NH2] (Ac-KKL[dF]KKIK(Butyryl)KYL-NH2)	0 ± 0 mm	2 ± 2 mm	4 ± 2 mm	4 ± 2 mm	0 ± 0%	–	0 ± 0%	0 ± 0%	0 ± 0%	–
CCCC(=O)NCCCC[C@H](NC(=O)[C@H](CCCCN)NC(C)=O)C(=O)N[C@@H](CC(C)C)C(=O)N[C@H](Cc1ccccc1)C(=O)N[C@@H](CCCCN)C(=O)N[C@@H](CCCCN)C(=O)N[C@H](C(=O)N[C@@H](CC(C)C)C(=O)N[C@@H](CCCCN)C(=O)N[C@@H](Cc1ccc(O)cc1)C(=O)N[C@@H](CC(C)C)C(N)=O)[C@@H](C)CC [BP486, Ac-KK(COC3H7)LfKKILKYL-NH2]	4 ± 1 mm	8 ± 1 mm	17 ± 2 mm	17 ± 2 mm	14 ± 5%	–	–	–	14 ± 2%	–
melittin [reference compound]	–	–	–	–	–	–	–	–	–	18 mm
CCCC(=O)NCCCC[C@H](NC(=O)[C@H](Cc1ccc(O)cc1)NC(=O)[C@H](CCCCN)NC(=O)[C@H](CC(C)C)NC(=O)[C@@H](NC(=O)[C@H](CCCCN)NC(=O)[C@H](CCCCN)NC(=O)[C@@H](Cc1ccccc1)NC(=O)[C@H](CC(C)C)NC(=O)[C@H](CCCCN)NC(=O)[C@H](CCCCN)NC(C)=O)[C@@H](C)CC)C(N)=O [BP496, Ac-KKLfKKILKYK(COC3H7)-NH2] (Ac-KKL[dF]KKILKYK(Butyryl)-NH2)	3 ± 0.5 mm	4 ± 0.5 mm	10 ± 3 mm	10 ± 3 mm	1 ± 1%	–	–	–	1 ± 0.5%	–
CCCCCC(=O)NCCCC[C@H](NC(=O)[C@H](CCCCN)NC(=O)[C@H](CCCCN)NC(=O)[C@@H](Cc1ccccc1)NC(=O)[C@H](CC(C)C)NC(=O)[C@H](CCCCN)NC(=O)[C@H](CCCCN)NC(C)=O)C(=O)N[C@@H](CC(C)C)C(=O)N[C@@H](CCCCN)C(=O)N[C@@H](Cc1ccc(O)cc1)C(=O)N[C@@H](CC(C)C)C(N)=O [BP494, Ac-KKLfKKK(COC5H11)LKYL-NH2] (Ac-KKL[dF]KKK(Hexanoyl)LKYL-NH2)	1 ± 1 mm	6 ± 1 mm	8 ± 1 mm	8 ± 1 mm	–	0.2 ± 0.2%	–	–	–	–
CCCC(=O)NCCCC[C@H](NC(=O)[C@H](CCCCN)NC(=O)[C@H](CC(C)C)NC(=O)[C@@H](NC(=O)[C@H](CCCCN)NC(=O)[C@H](CCCCN)NC(=O)[C@@H](Cc1ccccc1)NC(=O)[C@H](CC(C)C)NC(=O)[C@H](CCCCN)NC(=O)[C@H](CCCCN)NC(C)=O)[C@@H](C)CC)C(=O)N[C@@H](CC(C)C)C(N)=O [BP475, Ac-KKLfKKILKK(COC3H7)L-NH2] (Ac-KKL[dF]KKILKK(Butyryl)L-NH2)	5 ± 1 mm	7 ± 2 mm	10 ± 1 mm	10 ± 1 mm	0 ± 0% and 0%	–	0 ± 0%	0 ± 0%	0 ± 0%	–
CCCCCCCCCCCC(=O)NCCCC[C@H](NC(=O)[C@H](CC(C)C)NC(=O)[C@@H](NC(=O)[C@H](CCCCN)NC(=O)[C@H](CCCCN)NC(=O)[C@@H](Cc1ccccc1)NC(=O)[C@H](CC(C)C)NC(=O)[C@H](CCCCN)NC(=O)[C@H](CCCCN)NC(C)=O)[C@@H](C)CC)C(=O)N[C@@H](Cc1ccc(O)cc1)C(=O)N[C@@H](CC(C)C)C(N)=O [BP497, Ac-KKLfKKILK(COC11H23)YL-NH2]	5 ± 1 mm	18 ± 1 mm	18 ± 0 mm	18 ± 0 mm	100 ± 2%	–	–	100 ± 2%	100 ± 4%	–
CCCCCCCCCCCC(=O)NCCCC[C@H](NC(=O)[C@@H](NC(=O)[C@H](CCCCN)NC(=O)[C@H](CCCCN)NC(=O)[C@@H](Cc1ccccc1)NC(=O)[C@H](CC(C)C)NC(=O)[C@H](CCCCN)NC(=O)[C@H](CCCCN)NC(C)=O)[C@@H](C)CC)C(=O)N[C@@H](CCCCN)C(=O)N[C@@H](Cc1ccc(O)cc1)C(=O)N[C@@H](CC(C)C)C(N)=O [BP490, Ac-KKLfKKIK(COC11H23)KYL-NH2] (Ac-KKL[dF]KKIK(Lauroyl)KYL-NH2)	4 ± 0.7 mm	6 ± 2 mm	11 ± 3 mm	11 ±3 mm	100 ± 6%	–	100 ± 3%	–	–	–
CCCCCCCCCCCC(=O)NCCCC[C@@H](NC(=O)[C@H](CC(C)C)NC(=O)[C@H](CCCCN)NC(=O)[C@H](CCCCN)NC(C)=O)C(=O)N[C@@H](CCCCN)C(=O)N[C@@H](CCCCN)C(=O)N[C@H](C(=O)N[C@@H](CC(C)C)C(=O)N[C@@H](CCCCN)C(=O)N[C@@H](Cc1ccc(O)cc1)C(=O)N[C@@H](CC(C)C)C(N)=O)[C@@H](C)CC [BP488, Ac-KKLk(COC11H23)KKILKYL-NH2]	4 ± 0.7 mm	5 ± 1 mm	13 ± 5 mm	13 ± 5 mm	86 ± 14%	–	–	–	–	–
CCCC(=O)N[C@@H](CCCCN)C(=O)N[C@@H](CCCCN)C(=O)N[C@@H](CC(C)C)C(=O)N[C@H](Cc1ccccc1)C(=O)N[C@@H](CCCCN)C(=O)N[C@@H](CCCCN)C(=O)N[C@H](C(=O)N[C@@H](CC(C)C)C(=O)N[C@@H](CCCCN)C(=O)N[C@@H](Cc1ccc(O)cc1)C(=O)N[C@@H](CC(C)C)C(N)=O)[C@@H](C)CC [BP485, C3H7CO-KKLfKKILKYL-NH2]	4 ± 0.7 mm	7 ± 0.7 mm	12 ± 1 mm	12 ± 1 mm	24 ± 9%	–	–	–	–	–
CCCCCCCCCCCC(=O)NCCCC[C@H](NC(=O)[C@H](CCCCN)NC(=O)[C@H](CCCCN)NC(C)=O)C(=O)N[C@H](Cc1ccccc1)C(=O)N[C@@H](CCCCN)C(=O)N[C@@H](CCCCN)C(=O)N[C@H](C(=O)N[C@@H](CC(C)C)C(=O)N[C@@H](CCCCN)C(=O)N[C@@H](Cc1ccc(O)cc1)C(=O)N[C@@H](CC(C)C)C(N)=O)[C@@H](C)CC [BP500, Ac-KKK(COC11H23)fKKILKYL-NH2] (Ac-KKK(Lauroyl)[dF]KKILKYL-NH2)	3 ± 2 mm	6 ± 2 mm	9 ± 3 mm	9 ± 3 mm	71 ± 8%	–	–	71 ± 2%	–	–
